# Reference: patent publication US20080207694A1, “Hydroxamates as Histone Deacetylase Inhibitors and Pharmaceutical Formulations Containing Them” (priority 2005, published 2008)
# pIC50: −log10 of the molar value.
# Experiments:
# [1] = system: histone deacetylase (HDAC), nuclear extract of Hela cells; test: Deacetylase activity on nuclear extract of HeLa cells (Fluor de Lys kit); type: biochemical, human; conditions: percent inhibition relative to control without inhibitor, compound at 0.1 μM
# Protocol: (§1) The activity of the compounds as histone deacetylase (HDAC) inhibitors was measured using an in vitro acetylation assay. The compounds were then evaluated as inhibitors of proliferation of human tumor cell cultures.
# Deacetylase Activity on Nuclear Extract of Hela Cells (Human Cervical Cancer Cell)
# The assay (Fluor de Lys™ kit, BioMol) is divided into two steps: in the first step the substrate which comprises an acetylated lysine residue is reacted with the nuclear extract (HeLa) containing the enzymatic activity in the presence and absence of inhibitors. In the second step a fluorogenic reagent is added which highlights the deacetylated residues. A reduction in fluorescence is obtained where there has been inhibition of the deacetylase activity. The result is finally expressed as percent inhibition relative to the control without inhibitor at a concentration of 0.1 μM.
# [2] = system: Human colon carcinoma cells HCT-116; test: Cytotoxic activity on culture of human colon carcinoma cells HCT-116 (Alamar Blue); type: cell-based; conditions: HCT-116 cells, 72 hours after addition of compounds, Alamar Blue viability
# Protocol: as §1
# 24 hours after seeding, the compounds at different concentrations are added. […] 72 hours after addition of the compounds, cell viability is measured by means of the dye Alamar Blue.
SMILES,% inhib. 0.1 μM [1],"pIC50 ([2]; Homo sapiens, HCT-116, 72 h)",pIC50 [2]
"O=C(CCCC1CCN(C(=O)NCc2ccccc2)CC1)NO [Ex 7, 4-(3-Hydroxycarbamoyl-propyl)-piperidine-1-carboxylic acid benzylamide]",59%,6.52,–
"O=C(CCCC1CCN(C(=O)Nc2ccccc2)CC1)NO [Ex 8, 4-(3-Hydroxycarbamoyl-propyl)-piperidine-1-carboxylic acid phenylamide]",53%,6.15,–
"Cc1ccc2ccccc2c1C(=O)N1CCC(CCCC(=O)NO)CC1 [Ex 15, N-Hydroxy-4-[1-(2-methyl-naphthalene-1-carbonyl)-piperidin-4-yl]-butyramide]",43%,6.08,–
"Cc1ccc(NC(=O)N2CCC(CCCC(=O)NO)CC2)cc1 [Ex 22, 4-(3-Hydroxycarbamoyl-propyl)-piperidine-1-carboxylic acid p tolylamide]",67%,–,6.03
"O=C(CCCC1CCN(C(=O)NCc2ccc(Cl)cc2)CC1)NO [Ex 34, 4-(3-Hydroxycarbamoyl-propyl)-piperidine-1-carboxylic acid 4-chloro-benzylamide]",64%,6.48,–
"O=C(CCCC1CCN(C(=O)Nc2cccc3ccccc23)CC1)NO [Ex 35, 4-(3-Hydroxycarbamoyl-propyl)-piperidine-1-carboxylic acid 1-naphthylamide]",55%,6.15,–
"O=C(CCCC1CCN(C(=O)Nc2ccc3ccccc3c2)CC1)NO [Ex 36, 4-(3-Hydroxycarbamoyl-propyl)-piperidine-1-carboxylic acid 2-naphthylamide]",73%,6.08,–
"O=C(CCCC1CCN(C(=O)NCc2cccc(Cl)c2)CC1)NO [Ex 39, 4-(3-Hydroxycarbamoyl-propyl)-piperidine-1-carboxylic acid 3-chloro-benzylamide]",60%,6.09,–
"O=C(CCCC1CCN(C(=O)NCc2ccccc2F)CC1)NO [Ex 45, 4-(3-Hydroxycarbamoyl-propyl)-piperidine-1-carboxylic acid 2-fluoro-benzylamide]",79%,6.05,–
"Cc1ccc(CNC(=O)N2CCC(CCCC(=O)NO)CC2)cc1 [Ex 52, 4-(3-Hydroxycarbamoyl-propyl)-piperidine-1-carboxylic acid 4-methyl-benzylamide]",68%,6.30,–
"Nc1ccccc1NC(=O)N1CCC(CCCC(=O)NO)CC1 [Ex 73, 4-(3-Hydroxycarbamoyl-propyl)-piperidine-1-carboxylic acid (2-amino-phenyl)-amide]",73%,6.08,–
"O=C(CCCC1CCN(C(=O)CNC(=O)c2cc3ccccc3s2)CC1)NO [Ex 79, Benzo[b]thiophene-2-carboxylic acid {2-[4-(3-hydroxycarbamoyl-propyl)-piperidin-1-yl]-2-oxo-ethyl}-amide]",70%,6.11,–
"N[C@@H](CCc1ccccc1)C(=O)N1CCC(CCCC(=O)NO)CC1 [Ex 82, 4-[1-(2-(S)-Amino-4-phenyl-butyryl)-piperidin-4-yl]-N-hydroxy-butyramide]",62%,6.28,–
"O=C(CCCC1CCN(C(=O)Nc2cccc(Cl)c2F)CC1)NO [Ex 83, 4-(3-Hydroxycarbamoyl-propyl)-piperidine-1-carboxylic acid (3-chloro-2-fluoro-phenyl)-amide]",58%,6.17,–
"O=C(CCCC1CCN(C(=O)Nc2ccc(Cl)cc2F)CC1)NO [Ex 90, 4-(3-Hydroxycarbamoyl-propyl)-piperidine-1-carboxylic acid (4-chloro-2-fluoro-phenyl)-amide]",56%,6.35,–
"N[C@H](Cc1cccc2ccccc12)C(=O)N1CCC(CCCC(=O)NO)CC1 [Ex 93, 4-[1-(2-(R)-Amino-3-naphthalen-1-yl-propionyl)-piperidin-4-yl]-N-hydroxy-butyramide]",64%,6.30,–
"O=C(CCCC1CCN(C(=O)[C@H](CO)NC(=O)c2cc3ccccc3s2)CC1)NO [Ex 101, Benzo[b]thiophene-2-carboxylic acid {2-[4-(3-hydroxycarbamoyl-propyl)-piperidin-1-yl]-1-(S)-hydroxymethyl-2-oxo-ethyl}-amide]",64%,6.29,–

SMILES,% inhib. 0.1 μM [1],"pIC50 ([2]; Homo sapiens, HCT-116, 72 h)",pIC50 [2]
"O=C(CCCC1CCN(C(=O)[C@@H](CO)NC(=O)c2cc3ccccc3s2)CC1)NO [Ex 102, Benzo[b]thiophene-2-carboxylic acid {2-[4-(3-hydroxycarbamoyl-propyl)-piperidin-1-yl]-1-(R)-hydroxymethyl-2-oxo-ethyl}-amide]",54%,6.10,–
"CN(C)[C@@H](CCc1ccccc1)C(=O)N1CCC(CCCC(=O)NO)CC1 [Ex 103, 4-[1-(2-(S)-Dimethylamino-4-phenyl-butyryl)-piperidin-4-yl]-N-hydroxy-butyramide]",49%,6.70,–
"N[C@@H](CCc1ccccc1)C(=O)N1CCC(CCCC(=O)NO)CC1 [Ex 105, 4-[1-(2-(S)-Amino-4-phenyl-butyryl)-piperidin-4-yl]-N-hydroxy-butyramide]",59%,–,6.02
"O=C(CCCC1CCN(C(=O)NCc2ccco2)CC1)NO [Ex 106, 4-(3-Hydroxycarbamoyl-propyl)-piperidine-1-carboxylic acid (furan-2-ylmethyl)-amide]",52%,6.15,–
"N[C@@H](CC(=O)N1CCC(CCCC(=O)NO)CC1)c1ccc2ccccc2c1 [Ex 109, 4-[1-(3-(S)-Amino-3-naphthalen-2-yl-propionyl)-piperidin-4-yl]-N-hydroxy-butyramide]",71%,7.17,–
"O=C(CCCC1CCN(C(=O)[C@@H](CCO)NC(=O)c2cc3ccccc3s2)CC1)NO [Ex 110, Benzo[b]thiophene-2-carboxylic acid{3-hydroxy-1-(R)-[4-(3-hydroxycarbamoyl-propyl)-piperidine-1-carbonyl]-propyl}-amide]",54%,–,6.59
"N[C@H](CC(=O)N1CCC(CCCC(=O)NO)CC1)c1ccc2ccccc2c1 [Ex 111, 4-[1-(3-(R)-Amino-3-naphthalen-2-yl-propionyl)-piperidin-4-yl]-N-hydroxy-butyramide]",66%,6.26,–
"N[C@@H](CC(=O)N1CCC(CCCC(=O)NO)CC1)c1ccccc1 [Ex 112, 4-[1-(3-(S)-Amino-3-phenyl-propionyl)-piperidin-4-yl]-N-hydroxy-butyramide]",55%,6.51,–
"O=C(CCCC1CCN(C(=O)[C@H](CCO)NC(=O)c2cc3ccccc3s2)CC1)NO [Ex 113, Benzo[b]thiophene-2-carboxylic acid{3-hydroxy-1-(S)-[4-(3-hydroxycarbamoyl-propyl)-piperidine-1-carbonyl]-propyl}-amide]",61%,–,6.57
"O=C(CCCC1CCN(C(=O)[C@H](CO)NC(=O)c2ccc3sccc3c2)CC1)NO [Ex 114, Benzo[b]thiophene-5-carboxylic acid{2-[4-(3-hydroxycarbamoyl-propyl)-piperidin-1-yl]-1-(S)-hydroxymethyl-2-oxo-ethyl}-amide]",61%,–,6.47
"NC[C@@H](NC(=O)c1cc2ccccc2s1)C(=O)N1CCC(CCCC(=O)NO)CC1 [Ex 115, 2-oxo-ethyl}-amideBenzo[b]thiophene-2-carboxylic acid{1-(R)-aminomethyl-2-[4-(3-hydroxycarbamoyl-propyl)-piperidin-1-yl]-]",62%,–,6.05
"O=C(CCCC1CCN(C(=O)[C@H](CO)NC(=O)c2nccc3ccccc23)CC1)NO [Ex 122, Isoquinoline-1-carboxylic acid {2-[4-(3-hydroxycarbamoyl-propyl)-piperidin-1-yl]-1-(S)-hydroxymethyl-2-oxo-ethyl}-amide]",42%,6.38,–
"Cc1ccc(NC(=O)N2CCC(CCCC(=O)NO)CC2)c(N)c1 [Ex 126, 4-(3-Hydroxycarbamoyl-propyl)-piperidine-1-carboxylic acid (2-amino-4-methyl-phenyl)-amide]",63%,6.40,–
"CCCOc1ccc(NC(=O)N2CCC(CCCC(=O)NO)CC2)cc1 [Ex 137, 4-(3-Hydroxycarbamoyl-propyl)-piperidine-1-carboxylic acid (4-propoxy-phenyl)-amide]",68%,6.82,–
"CC(C)Oc1ccc(NC(=O)N2CCC(CCCC(=O)NO)CC2)cc1 [Ex 139, 4-(3-Hydroxycarbamoyl-propyl)-piperidine-1-carboxylic acid (4-isopropoxy-phenyl)-amide]",56%,6.40,–
"N[C@@H](CC(=O)N1CCC(CCCC(=O)NO)CC1)Cc1ccc2ccccc2c1 [Ex 144, 4-[1-(3-(R)-Amino-4-naphthalen-2-yl-butyryl)-piperidin-4-yl]-N-hydroxy-butyramide]",69%,6.62,–
"N[C@H](CC(=O)N1CCC(CCCC(=O)NO)CC1)Cc1csc2ccccc12 [Ex 146, 4-[1-(3-(S)-Amino-4-benzo[b]thiophen-3-yl-butyryl)-piperidin-4-yl]-N-hydroxy-butyramide]",68%,7.22,–
